test system: green peach aphids (Myzus persicae); experiment: Insecticidal test for green peach aphids; format: in vivo; conditions: 500 ppm chemical solution sprinkled (2.5 mg/cm^2), wingless imagoes on leaf disc, six days, 25°C; 8640 min
Protocol: Wet absorbent cotton was laid on each glass dish having an inner diameter of 3 cm, a Chinese olive leaf cut into a circle having a diameter of 3 cm was placed thereon, and four wingless green peach aphids (Myzus persicae) imagoes were released. After a day, a 10% by mass emulsion of the presently invented compound prepared according to the above formulation example for an emulsion was diluted with water containing a spreader to prepare a chemical solution having a concentration of 500 ppm. The chemical solution prepared was sprinkled (2.5 mg/cm^2) with a rotary tower sprinkler, and the dishes were capped and accommodated in a thermostatic room at 25°C. […] The test was carried out in duplicate.

Row | Compound | death rate
1 | Cc1ccc(NC(=O)C2=C(O)CC(c3nc(-c4ccnc(F)c4)no3)NC2=O)c(C)c1 (stereo not drawn) [3-266] | ≥ 90%
2 | O=C(Nc1ccc(Cl)nn1)C1=C(O)CC(c2cnc(Cl)c(-c3ccc(Cl)nc3)c2)NC1=O (stereo not drawn) [2-046] | ≥ 90%

test system: Trichostrongylus axei; experiment: Effect test for Trichostrongylus axei; format: in vivo; parameters: concentration or dose not given beside the values; conditions: test chemical solution B added to eggs in 96-well plate, unhatched eggs and inactive larvae counted 4 days after addition, 25°C, relative to untreated plot
Protocol: Agar medium with 1% potato dextrose was aliquoted into 60-µl portions in a 96-well plate, and 30 µl of sterilized water containing Trichostrongylus axei eggs and a freeze-dried Escherichia coli OP50 strain (five eggs, 10 µg/10 µl Escherichia coli) was added to each well. From above, 10 µl of test chemical solution B of the presently invented compound was added to each well, and the plate was left to stand under dark conditions at 25°C.

Row | Compound | efficacy (%)
3 | Cn1ccc(NC(=O)C2=C(O)CC(c3nc(-c4ccc(F)cc4)no3)NC2=O)n1 (stereo not drawn) [3-202] | ≥ 50%
4 | O=C(Nc1ncc(F)cc1Cl)C1=C(O)CC(c2cnc(Cl)c(-c3ccc(F)nc3)c2)NC1=O (stereo not drawn) [2-103] | ≥ 50%
5 | O=C(Nc1cccnn1)C1=C(O)CC(c2cnc(Cl)c(-c3ccc(F)nc3)c2)NC1=O (stereo not drawn) [2-289] | ≥ 50%
6 | Cc1ccc(NC(=O)C2=C(O)CC(c3nc(-c4ccccc4F)no3)NC2=O)nc1 (stereo not drawn) [3-129] | ≥ 50%
7 | O=C(Nc1ccc(F)cn1)C1=C(O)CC(c2nc(-c3cc(F)c(F)cc3F)no2)NC1=O (stereo not drawn) [3-139] | ≥ 50%
8 | Cc1cc(Cl)cnc1NC(=O)C1=C(O)CC(c2cnc(Cl)c(-c3ccc(F)nc3)c2)NC1=O (stereo not drawn) [2-130] | ≥ 50%
9 | O=C(Nc1ccc(F)cn1)C1=C(O)CC(c2nc(-c3csc(Br)c3)no2)NC1=O (stereo not drawn) [3-086] | ≥ 50%
10 | Cc1cccc(-c2cc(C3CC(O)=C(C(=O)Nc4ncccc4C)C(=O)N3)cnc2Cl)c1 (stereo not drawn) [2-272] | ≥ 50%
11 | Cn1ccc(NC(=O)C2=C(O)CC(c3nc(-c4ccc(F)cc4F)no3)NC2=O)n1 (stereo not drawn) [3-154] | ≥ 50%
12 | O=C(Nc1ncc(Cl)cc1F)C1=C(O)CC(c2nc(-c3ccc(F)nc3)no2)NC1=O (stereo not drawn) [3-271] | ≥ 50%
13 | Cc1ccc(NC(=O)C2=C(O)CC(c3cnc(Cl)c(-c4cccc(C)c4)c3)NC2=O)nc1 (stereo not drawn) [2-273] | ≥ 50%
14 | Cc1cc(NC(=O)C2=C(O)CC(c3cnc(Cl)c(-c4ccc(F)nc4)c3)NC2=O)cnc1Cl (stereo not drawn) [2-129] | ≥ 50%
15 | O=C(Nc1ccc(Br)c(F)n1)C1=C(O)CC(c2cnc(Cl)c(-c3ccc(F)nc3)c2)NC1=O (stereo not drawn) [2-132] | ≥ 50%
16 | Cn1ccc(NC(=O)C2=C(O)CC(c3cnc(C(F)(F)F)c(-c4ccc(F)nc4)c3)NC2=O)n1 (stereo not drawn) [2-172] | ≥ 50%
17 | O=C(Nc1ccc(F)cn1)C1=C(O)CC(c2cnc(C(F)(F)F)c(-c3ccccc3F)c2)NC1=O (stereo not drawn) [2-249] | ≥ 50%
18 | O=C(Nc1ncc(Cl)nc1Cl)C1=C(O)CC(c2cnc(Cl)c(-c3ccc(F)nc3)c2)NC1=O (stereo not drawn) [2-131] | ≥ 50%
19 | O=C(Nc1ccc(Cl)nc1)C1=C(O)CC(c2cnc(Cl)c(-c3ccc(F)cc3)c2)NC1=O (stereo not drawn) [2-221] | ≥ 50%
20 | O=C(Nc1ccc(Cl)nc1Cl)C1=C(O)CC(c2cnc(Cl)c(-c3ccc(F)nc3)c2)NC1=O (stereo not drawn) [2-128] | ≥ 50%
21 | O=C(Nc1ccc(C(F)(F)F)cn1)C1=C(O)CC(c2cnc(Cl)c(-c3cncc(F)c3)c2)NC1=O (stereo not drawn) [2-056] | ≥ 50%
22 | CON=Cc1cccc(-c2noc(C3CC(O)=C(C(=O)Nc4ccc(F)cn4)C(=O)N3)n2)c1 (stereo not drawn) [3-124] | ≥ 50%
23 | O=C(Nc1ccc(Cl)cn1)C1=C(O)CC(c2cnc(C(F)(F)F)c(-c3ccc(F)nc3)c2)NC1=O (stereo not drawn) [2-169] | ≥ 50%

Row | Compound | efficacy (%)
24 | Cc1cc(-c2noc(C3CC(O)=C(C(=O)Nc4ccc(F)cn4)C(=O)N3)n2)ccn1 (stereo not drawn) [3-061] | ≥ 50%
25 | Cn1nccc1NC(=O)C1=C(O)CC(c2cnc(Cl)c(-c3ccc(F)cc3)c2)NC1=O (stereo not drawn) [2-290] | ≥ 50%
26 | COc1ccc(-c2cc(C3CC(O)=C(C(=O)Nc4ccc(F)cn4)C(=O)N3)cnc2C(F)(F)F)cc1 (stereo not drawn) [2-245] | ≥ 50%
27 | O=C(Nc1ccc(F)c(F)c1)C1=C(O)CC(c2nc(-c3ccc(F)nc3)no2)NC1=O (stereo not drawn) [3-274] | ≥ 50%
28 | O=C(Nc1ccc(F)cn1)C1=C(O)CC(c2cnc(Cl)c(-c3ccnc(F)c3)c2)NC1=O (stereo not drawn) [2-115] | ≥ 50%
29 | O=C(Nc1ccc(F)cn1)C1=C(O)CC(c2cnc(C(F)(F)F)c(-c3cccc(F)c3)c2)NC1=O (stereo not drawn) [2-246] | ≥ 50%
30 | Cc1ccc(NC(=O)C2=C(O)CC(c3cnc(Cl)c(-c4cccc(C)c4)c3)NC2=O)nc1 (stereo not drawn) [2-255] | ≥ 50%
31 | O=C(Nc1cc(F)ccn1)C1=C(O)CC(c2nc(-c3ccc(F)cc3F)no2)NC1=O (stereo not drawn) [3-199] | ≥ 50%
32 | Cn1ccc(-c2noc(C3CC(O)=C(C(=O)Nc4ccc(F)cn4)C(=O)N3)n2)n1 (stereo not drawn) [3-085] | ≥ 50%
33 | O=C(Nc1ccc(SC(F)(F)F)cc1)C1=C(O)CC(c2cnc(Cl)c(-c3ccc(F)nc3)c2)NC1=O (stereo not drawn) [2-038] | ≥ 50%
34 | O=C(Nc1ccc(F)cn1)C1=C(O)CC(c2cnc(C(F)(F)F)c(-c3ccc(F)nc3)c2)NC1=O (stereo not drawn) [2-167] | ≥ 50%
35 | Cc1cc(-c2noc(C3CC(O)=C(C(=O)Nc4cc(C(F)(F)F)n(C)n4)C(=O)N3)n2)ccn1 (stereo not drawn) [3-275] | ≥ 50%
36 | O=C(Nc1ccc(F)cn1)C1=C(O)CC(c2nc(-c3ccsc3)no2)NC1=O (stereo not drawn) [3-110] | ≥ 50%
37 | O=C(Nc1ccc(F)cn1)C1=C(O)CC(c2nc(-c3ccncc3F)no2)NC1=O (stereo not drawn) [3-064] | ≥ 50%
38 | COc1ccc(-c2noc(C3CC(O)=C(C(=O)Nc4ccc(F)cn4)C(=O)N3)n2)cc1 (stereo not drawn) [3-137] | ≥ 50%
39 | O=C(Nc1ccc(F)cn1)C1=C(O)CC(c2cnc(C(F)(F)F)c(-c3cccnc3)c2)NC1=O (stereo not drawn) [2-251] | ≥ 50%
40 | COc1ccccc1-c1cc(C2CC(O)=C(C(=O)Nc3ccc(F)cn3)C(=O)N2)cnc1C(F)(F)F (stereo not drawn) [2-250] | ≥ 50%
41 | Cc1ccc(NC(=O)C2=C(O)CC(c3nc(-c4ccc(F)cc4)no3)NC2=O)nc1 (stereo not drawn) [3-127] | ≥ 50%
42 | Cc1ccc(NC(=O)C2=C(O)CC(c3cnc(C(F)(F)F)c(-c4ccc(F)nc4)c3)NC2=O)nc1 (stereo not drawn) [2-171] | ≥ 50%
43 | O=C(Nc1cnccn1)C1=C(O)CC(c2cnc(Cl)c(-c3ccc(F)nc3)c2)NC1=O (stereo not drawn) [2-133] | ≥ 50%
44 | Cn1nc(Cl)c(-c2noc(C3CC(O)=C(C(=O)Nc4nccs4)C(=O)N3)n2)c1Cl (stereo not drawn) [3-171] | ≥ 50%

Row | Compound | efficacy (%)
45 | Cc1cc(NC(=O)C2=C(O)CC(c3nc(-c4ccnc(F)c4)no3)NC2=O)on1 (stereo not drawn) [3-121] | ≥ 50%
46 | Cc1cnc(NC(=O)C2=C(O)CC(c3cnc(Cl)c(-c4ccc(F)nc4)c3)NC2=O)nc1 (stereo not drawn) [2-120] | ≥ 50%
47 | O=C(Nc1ccc(Cl)nc1)C1=C(O)CC(c2nc(-c3ccnc(F)c3)no2)NC1=O (stereo not drawn) [3-060] | ≥ 50%
48 | O=C(Nc1cnc(Cl)c(Cl)c1)C1=C(O)CC(c2cnc(Cl)c(-c3ccc(F)nc3)c2)NC1=O (stereo not drawn) [2-126] | ≥ 50%
49 | Cc1cccc(-c2cc(C3CC(O)=C(C(=O)Nc4cc(C#N)ccn4)C(=O)N3)cnc2Cl)c1 (stereo not drawn) [2-262] | ≥ 50%
50 | Cc1ccc(-c2noc(C3CC(O)=C(C(=O)Nc4ccc(F)cn4)C(=O)N3)n2)cn1 (stereo not drawn) [3-087] | ≥ 50%
51 | N#Cc1ccc(NC(=O)C2=C(O)CC(c3cnc(Cl)c(-c4ccc(F)nc4)c3)NC2=O)nc1 (stereo not drawn) [2-088] | ≥ 50%
52 | O=C(Nc1ccc(F)cn1)C1=C(O)CC(c2cnc(C(F)(F)F)c(-c3ccc(F)cc3)c2)NC1=O (stereo not drawn) [2-244] | ≥ 50%
53 | O=C(Nc1ccc(F)cn1)C1=C(O)CC(c2nc(-c3ncc(C(F)(F)F)cc3Cl)no2)NC1=O (stereo not drawn) [3-148] | ≥ 50%
54 | Cc1ccc(NC(=O)C2=C(O)CC(c3nc(-c4cccc(F)c4)no3)NC2=O)nc1 (stereo not drawn) [3-128] | ≥ 50%
55 | O=C(Nc1ccc(F)cn1)C1=C(O)CC(c2nc(-c3cc(F)c(F)c(F)c3)no2)NC1=O (stereo not drawn) [3-138] | ≥ 50%
56 | Cc1ccnc(NC(=O)C2=C(O)CC(c3cnc(Cl)c(-c4ccc(F)nc4)c3)NC2=O)c1 (stereo not drawn) [2-153] | ≥ 50%
57 | O=C(Nc1ccc(Cl)nc1)C1=C(O)CC(c2cnc(C(F)(F)F)c(-c3ccc(F)nc3)c2)NC1=O (stereo not drawn) [2-170] | ≥ 50%
58 | Cc1cccc(-c2cc(C3CC(O)=C(C(=O)Nc4ccn(C)n4)C(=O)N3)cnc2Cl)c1 (stereo not drawn) [2-256] | ≥ 50%
59 | O=C(Nc1ccc(F)nc1)C1=C(O)CC(c2nc(-c3ccc(F)cc3)no2)NC1=O (stereo not drawn) [3-082] | ≥ 50%
60 | Cn1nc(Cl)c(-c2noc(C3CC(O)=C(C(=O)Nc4ccccn4)C(=O)N3)n2)c1Cl (stereo not drawn) [3-170] | ≥ 50%
61 | CON=C(C)c1cccc(-c2noc(C3CC(O)=C(C(=O)Nc4ccc(F)cn4)C(=O)N3)n2)c1 (stereo not drawn) [3-125] | ≥ 50%
62 | O=C(Nc1ccc(C(F)(F)F)nc1)C1=C(O)CC(c2cnc(Cl)c(-c3ccc(F)cc3)c2)NC1=O (stereo not drawn) [2-234] | ≥ 50%
63 | Cn1nc(Cl)c(-c2noc(C3CC(O)=C(C(=O)Nc4ccc(F)cn4)C(=O)N3)n2)c1Cl (stereo not drawn) [3-114] | ≥ 50%

— EP4582413A1, “ARYLTETRAHYDROPYRIDINE COMPOUND AND PEST CONTROL AGENT” (priority 2022, dated 2024)
